Data: US10703755B2, “Substituted purine derivative” (SUMITOMO DAINIPPON PHARMA CO., LTD., priority 2016, dated 2020)

Target: human TLR7 (Homo sapiens (Human), UniProt Q9NYK1)
Assay: Test for evaluating the inhibition of the activation of human TLR7 (SEAP reporter, TLR7/NF-κB/SEAPorter HEK293 cell)
Assay type: cell-based
Conditions: R-848 200 nmol/L; for IC50: SEAP reporter; for inhibitory effect against TLR7 in the test for evaluating inhibition of the activation of TLR7: SEAP activity, result in words
Procedure: As human TLR7 expressing cell line, HEK293 cell line was bought from IMGENEX Corporation (TLR7/NF-ηB/SEAPorter™ HEK293 cell), which is human embryonic kidney cell line and stably expresses full-length human TLR7 gene and secreted alkaline phosphatase (SEAP) reporter gene under the transcriptional control of an NE-ηB response element. The TLR7/NF-ηB/SEAPorter™ HEK293 cell was cultivated with DMEM containing 10% fetal bovine serum (FBS) and 10 μg/mL blasticidin S at 37° C. in the presence of 5% CO2. The TLR7/NF-ηB/SEAPorter™ HEK293 cell was seeded into 96-well microtiter plate at 5×10^4 cell/90 μL/well, and the place was cultivated at 37° C. in a CO2 incubator overnight.
Each compound prepared in the Examples was evaluated by Test 1.

Chain of human TLR7 (Q9NYK1 27-1049): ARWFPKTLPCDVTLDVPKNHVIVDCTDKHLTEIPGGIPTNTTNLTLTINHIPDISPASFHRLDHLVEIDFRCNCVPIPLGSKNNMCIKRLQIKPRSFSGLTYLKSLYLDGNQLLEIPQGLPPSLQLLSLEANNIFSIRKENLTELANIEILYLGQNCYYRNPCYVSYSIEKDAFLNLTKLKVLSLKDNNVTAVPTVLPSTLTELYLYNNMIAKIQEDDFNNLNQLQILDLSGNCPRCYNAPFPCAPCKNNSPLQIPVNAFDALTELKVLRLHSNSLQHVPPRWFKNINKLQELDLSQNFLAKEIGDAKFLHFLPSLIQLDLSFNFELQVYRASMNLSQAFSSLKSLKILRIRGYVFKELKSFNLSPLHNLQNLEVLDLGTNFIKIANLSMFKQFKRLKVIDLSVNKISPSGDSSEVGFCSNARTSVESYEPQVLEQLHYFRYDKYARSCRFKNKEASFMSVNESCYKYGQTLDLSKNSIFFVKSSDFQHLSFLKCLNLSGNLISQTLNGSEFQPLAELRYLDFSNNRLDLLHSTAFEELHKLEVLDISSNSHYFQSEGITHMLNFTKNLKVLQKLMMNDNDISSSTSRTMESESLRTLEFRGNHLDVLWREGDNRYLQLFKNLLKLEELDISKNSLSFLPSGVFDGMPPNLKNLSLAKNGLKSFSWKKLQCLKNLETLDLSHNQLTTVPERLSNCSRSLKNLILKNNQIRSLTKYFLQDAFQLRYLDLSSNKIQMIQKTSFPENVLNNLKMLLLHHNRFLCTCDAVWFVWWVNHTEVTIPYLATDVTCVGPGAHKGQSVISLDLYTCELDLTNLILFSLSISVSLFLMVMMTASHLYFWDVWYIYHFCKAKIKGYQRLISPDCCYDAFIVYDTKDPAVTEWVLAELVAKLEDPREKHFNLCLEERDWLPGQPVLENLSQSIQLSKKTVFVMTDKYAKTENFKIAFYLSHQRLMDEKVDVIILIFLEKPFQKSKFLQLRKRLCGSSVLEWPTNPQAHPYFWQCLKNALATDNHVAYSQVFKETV

Compound | IC50 [µM] | inhibitory effect against TLR7 in the test for evaluating inhibition of the activation of TLR7
COc1nc(C)c2nc(-c3cncnc3)n(Cc3ccc([C@H]4CN5CCC4CC5)cc3F)c2n1 [Example 445, 9-{4-[(3S)-1-azabicyclo[2.2.2]oct-3-yl]-2-fluorobenzyl}-2-methoxy-6-methyl-8-(pyrimidin-5-yl)-9H-purine] | 0.021 | potent inhibitory effect against TLR7
CCOc1nc(C)c2nc(-c3cncc(F)c3)n(Cc3cnn(C4CCN(C)C4)c3)c2n1 (stereo not drawn) [Example 164] | 0.17 | –
COc1nc(C)c2nc(-c3cncc(F)c3)n(Cc3ccc(CN(C)C)cc3F)c2n1 [Example 259, 1-(3-fluoro-4-{[8-(5-fluoropyridin-3-yl)-2-methoxy-6-methyl-9H-purin-9-yl]methyl}phenyl)-N,N-dimethylmethanamine] | 0.028 | potent inhibitory effect against TLR7
CCOc1nc(C)c2nc(-c3cncc(F)c3)n(Cc3ccc(C4CN5CCC4CC5)cc3C#N)c2n1 (stereo not drawn) [Example 384] | 0.27 | –
COc1nc(C)c2nc(-c3cncc(F)c3)n(Cc3cnn(CCCN(C)C)c3)c2n1 [Example 251] | 0.18 | –
COc1nc(C)c2nc(-c3cncc(F)c3)n(Cc3ccc(Br)c(F)c3)c2n1 [Example 332] | 6.48 | –
COCCOc1nc(N)c2nc(-c3cnc4ccccc4c3)n(Cc3ccc(CN(C)C)cc3)c2n1 [Example 32] | 8.6 | –
CCOc1nc(C)c2nc(-c3cncc(F)c3)n(Cc3cnn(CC4COCCN4)c3)c2n1 (stereo not drawn) [Example 426] | 0.2 | –
CCOc1nc(N)c2nc(-c3cncc(F)c3)n(Cc3ccc([C@@H]4CN5CCC4CC5)cc3)c2n1 [Example 175, 9-{4-[(3R)-1-Azabicyclo[2.2.2]oct-3-yl]benzyl}-2-ethoxy-8-(5-fluoropyridin-3-yl)-9H-purine-6-amine] | 0.094 | –
CCOc1nc(C)c2nc(-c3cncc(F)c3)n(Cc3cnc(Cl)c(F)c3)c2n1 [Example 338] | 0.667 | –
CN(C)Cc1ccc(Cn2c(-c3cncc(F)c3)nc3c(N)nc(OC4CCOCC4)nc32)cc1 [Example 151] | 16.6 | –
COc1nc(C)c2nc(-c3cncc(F)c3)n(Cc3cc(C4CN5CCC4CC5)ccc3F)c2n1 (stereo not drawn) [Example 443, 9-[5-(1-azabicyclo[2.2.2]oct-3-yl)-2-fluorobenzyl]-8-(5-fluoropyridin-3-yl)-2-methoxy-6-methyl-9H-purine] | 0.017 | potent inhibitory effect against TLR7
CCOc1nc(C)c2nc(-c3cncc(F)c3)n(Cc3ccc(C4CN5CCC4CC5)cc3OCC)c2n1 (stereo not drawn) [Example 376] | 0.084 | potent inhibitory effect against TLR7
COc1nc(C)c2nc(-c3ccc4ncccc4c3)n(Cc3ccc(OC4CN5CCC4CC5)cc3F)c2n1 (stereo not drawn) [Example 440] | 0.084 | –
CCCOc1nc(N)c2nc(-c3cncc(F)c3)n(Cc3ccc(CN(C)C)cc3)c2n1 [Example 162] | 0.21 | –
Cc1nc(O)nc2c1nc(-c1cncc(F)c1)n2Cc1ccc(C2CN3CCC2CC3)cc1 (stereo not drawn) [Example 388, 9-[4-(1-Azabicyclo[2.2.2]oct-3-yl)benzyl]-8-(5-fluoropyridin-3-yl)-6-methyl-9H-purin-2-ol] | 1.35 | –
CCNc1nc(N)c2nc(-c3cncc(F)c3)n(Cc3ccc(CN(C)C)cc3)c2n1 [Example 117] | 7 | –

Compound | IC50 [µM] | inhibitory effect against TLR7 in the test for evaluating inhibition of the activation of TLR7
CCOc1nc(C)c2nc(-c3cncc(F)c3)n(Cc3ccc(CN4CCN5CC[C@@H]4C5)cc3)c2n1 [Example 174, 9-{4-[(5R)-1,4-diazabicyclo[3.2.1]oct-4-ylmethyl]benzyl}-2-ethoxy-8-(5-fluoropyridin-3-yl)-6-methyl-9H-purine] | 0.026 | potent inhibitory effect against TLR7
CCN1CC(COc2ccc(Cn3c(-c4cncc(F)c4)nc4c(C)nc(OC)nc43)c(F)c2)C1 [Example 287] | 0.029 | potent inhibitory effect against TLR7
CCOc1nc(C)c2nc(-c3cncc(F)c3)n(Cc3ccc(C4=CN5CCC4CC5)cc3OC)c2n1 [Example 354] | 0.036 | –
COc1nc(C)c2nc(-c3cccnc3)n(Cc3ccc(C4CCN(C)CC4)cc3F)c2n1 [Example 292, 9-[2-fluoro-4-(1-methylpiperidin-4-yl)benzyl]-2-methoxy-6-methyl-8-(pyridin-3-yl)-9H-purine] | 0.039 | potent inhibitory effect against TLR7
COc1nc(C)c2nc(-c3cnc(C)nc3)n(Cc3ccc(C4CN5CCC4CC5)cc3F)c2n1 (stereo not drawn) [Example 348] | 0.092 | potent inhibitory effect against TLR7
CCOc1nc(C)c2nc(-c3cncc(F)c3)n(Cc3cnc(CC4CCNCC4)cc3OC)c2n1 [Example 430] | 0.549 | –
COc1nc(C)c2nc(-c3cncc(F)c3)n(Cc3ccc([C@@H]4CN5CCC4CC5)cc3)c2n1 [Example 177, 9-{4-[(3R)-1-Azabicyclo[2.2.2]oct-3-yl]benzyl}-8-(5-fluoropyridin-3-yl)-2-methoxy-6-methyl-9H-purine] | 0.01 | –
CCN1CCC(c2ccc(Cn3c(-c4cccnc4)nc4c(C)nc(OC)nc43)c(F)c2)CC1 [Example 293, 9-[4-(1-ethylpiperidin-4-yl)-2-fluorobenzyl]-2-methoxy-6-methyl-8-(pyridin-3-yl)-9H-purine] | 0.018 | potent inhibitory effect against TLR7
CCOc1nc(N)c2nc(-c3cncc(F)c3)n(Cc3ccc(CN4CCCCC4)cc3)c2n1 [Example 98] | 0.071 | potent inhibitory effect against TLR7
CCOc1nc(C)c2nc(-c3cncc(F)c3)n(Cc3ccc(CO)cc3)c2n1 [Example 78] | 1.3 | –
CCOc1nc(C)c2nc(-c3cncc(F)c3)n(Cc3cc(OC)c(C4CN5CCC4CC5)cc3F)c2n1 (stereo not drawn) [Example 317] | 1.61 | –
COc1nc(C)c2nc(-c3cncc(F)c3)n(Cc3ccc(O[C@@H]4CCN(C)C4)cc3F)c2n1 [Example 415, 9-(2-fluoro-4-{[(3R)-1-methylpyrrolidin-3-yl]oxy}benzyl)-8-(5-fluoropyridin-3-yl)-2-methoxy-6-methyl-9H-purine] | 0.016 | potent inhibitory effect against TLR7
CCOc1nc(N)c2nc(-c3cncc(F)c3)n(Cc3ccc(-c4cncc(F)c4)cc3)c2n1 [Example 45] | 0.95 | –
CCOc1nc(C)c2nc(-c3cncc(F)c3)n(Cc3ccc(CN(CC)CC)cc3)c2n1 [Example 266] | 0.029 | potent inhibitory effect against TLR7
CCN1CCC(c2ccc(Cn3c(-c4cncc(C#N)c4)nc4c(C)nc(OC)nc43)c(F)c2)CC1 [Example 289, 5-{9-[4-(1-ethylpiperidin-4-yl)-2-fluorobenzyl]-2-methoxy-6-methyl-9H-purin-8-yl}pyridine-3-carbonitrile] | 0.03 | potent inhibitory effect against TLR7
COCCOc1nc(N)c2nc(-c3cncc(F)c3)n(Cc3ccc(CN4CCOCC4)cc3)c2n1 [Example 88] | 0.9 | –

Results, then the molecule that gave them:

IC50 [µM] | inhibitory effect against TLR7 in the test for evaluating inhibition of the activation of TLR7 | Compound
1.6 | – | CCOc1nc(N)c2nc(-c3cncc(F)c3)n(Cc3ccc(CN4CC(C#N)C4)cc3)c2n1 [Example 103]
0.504 | – | COc1nc(C)c2nc(-c3cncc(F)c3)n(Cc3ccc(C4=CN5CCC4CC5)cn3)c2n1 [Example 353]
12.8 | – | CCCCOc1nc(N)c2nc(-c3ccccc3)n(Cc3cccnc3)c2n1 [Example 9]
0.7 | – | CCOc1nc(N)c2nc(-c3cncc(F)c3)n(Cc3ccccc3)c2n1 [Example 21]
0.1 | – | CCOc1nc(C)c2nc(-c3cncc(F)c3)n(Cc3cnn(CCCN4CCOCC4)c3)c2n1 [Example 249]
2.9 | – | CCOc1nc(N)c2nc(-c3cncc(OC)c3)n(Cc3ccc(CN(C)C)cc3)c2n1 [Example 36]
2 | – | CCOc1nc(N)c2nc(-c3cncc(F)c3)n(Cc3cccnc3)c2n1 [Example 22]
0.019 | potent inhibitory effect against TLR7 | CCN1C[C@@H]2C[C@H]1CN2Cc1ccc(Cn2c(-c3cncc(F)c3)nc3c(C)nc(OC)nc32)cc1 [Example 132, 9-(4-{[(1S,4S)-5-ethyl-2,5-diazabicyclo[2.2.1]hept-2-yl]methyl}benzyl)-8-(5-fluoropyridin-3-yl)-2-methoxy-6-methyl-9H-purine]
13.7 | – | COCC(C)Oc1nc(N)c2nc(-c3cncc(F)c3)n(Cc3ccc(CN(C)C)cc3)c2n1 (stereo not drawn) [Example 158, 9-{4-[(Dimethylamino)methyl]benzyl}-8-(5-fluoropyridin-3-yl)-2-[(1-methoxypropan-2-yl)oxy]-9H-purine-6-amine]
0.55 | – | CCOc1nc(N)c2nc(-c3cncc(F)c3)n(Cc3ccc(OCCCN(C)C)nc3)c2n1 [Example 42]
5.8 | – | CN(C)Cc1ccc(Cn2c(-c3cncc(F)c3)nc3c(N)nc(N4CCC4)nc32)cc1 [Example 153]
0.067 | potent inhibitory effect against TLR7 | COc1nc(C)c2nc(-c3cncc(C#N)c3)n(Cc3ccc(C4CCNCC4)cc3F)c2n1 [Example 343]
1.4 | – | CCCCCc1nc(N)c2nc(-c3cncc(OC)c3)n(Cc3ccccc3)c2n1 [Example 27]
8.9 | – | CCc1nc(N)c2nc(-c3cncc(F)c3)n(Cc3ccc(CN(C)C)cc3)c2n1 [Example 157]
0.445 | – | CCOc1nc(C)c2nc(-c3cncc(F)c3)n(Cc3cnn(CCN(C)C)c3)c2n1 [Example 244]
